Key:
[1] = target: T1, E. coli PPAT (Escherichia coli, UniProt P0A6I6); test: Assay for inhibitors of E. coli PPAT (pyrophosphate-dependent cleavage of dephosphocoenzyme A, coupled spectrophotometric assay at 340 nm); type: biochemical; settings: test compound at 0.05 mM, 25° C., compared with control without inhibitor
T1 construct: made in house; host or cells: E. coli (plasmid pUC/PPAT, pUC19 backbone)
Method: The activity of the PPAT enzyme was assayed by monitoring the pyrophosphate dependent cleavage of dephosphocoenzyme A which produced ATP and phosphopantetheine. The reaction contains in a final volume of 1 ml: 50 mM Tris-HCl containing 2 mM tetrasodium pyrophosphate, pH 8.0; 1 mM dithiothreitol; 1 mM NADP; 2 mM MgCl2; 5 mM glucose; 9 μg yeast hexokinase; and 7 μg yeast glucose 6-phosphate dehydrogenase. Reactions were monitored spectrophotometrically at 25° C. by following the increase in absorbance at 340 nm.
Inhibition studies were carried out using the reaction conditions described above. Test compounds were added to a final concentration of 0.05 mM, and the percentage inhibition determined by comparison with a control in which no test inhibitor is present.

[2] = test system: dihydrofolate reductase (DHFR); settings: bacterial vs mammalian DHFR; competes with substrate dihydrofolate; cited from earlier work

T1 sequence (P0A6I6 whole entry): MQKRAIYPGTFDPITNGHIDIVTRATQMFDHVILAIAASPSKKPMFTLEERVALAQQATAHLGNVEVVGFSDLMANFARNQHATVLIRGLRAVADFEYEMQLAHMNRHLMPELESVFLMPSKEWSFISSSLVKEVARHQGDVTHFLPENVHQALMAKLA

Compound	inhibition at 50 µM [1] [%]	bound more tightly by bacterial than mammalian forms of DHFR [2]
O=C1CC(=O)c2ccc3c4c(ccc1c24)C(=O)CC3=O [1,2,3,6,7,8-hexahydropyrene-1,3,6,8-tetraone]	~60	–
COc1cc(Cc2cnc(N)nc2N)cc(OC)c1OC [trimethoprim]	–	50,000 fold
